Experimental data reported in patent US20050245399A1, “Pyrazole derivatives as herbicidal compositions containing them” (ISHIHARA SANGYO KAISHA, LTD., priority 2004, published 2005).

Experiments:
Format in all cases: in vivo
[1] = test system: barnyardgrass (Echinochloa crus-galli L.), ECHCG; test: Test Example 2 post-emergence (foliage treatment) herbicidal activity, ECHCG; conditions: 63 g a.i./ha
Excerpt: (§1) Upland field soil was put into a 1/170,000 ha pot, and seeds of various plants were sown. Then, when the plants reached predetermined leaf stages {1. barnyardgrass (Echinochloa crus-galli L.), ECHCG: 1.1-2.1 leaf stage, 2. crabgrass (Digitaria sanguinalis L.), DIGSA: 1.0-2.0 leaf stage, 3. green foxtail (Setaria viridis L.), SETVI: 1.0-2.2 leaf stage, 4. redroot pigweed (Amaranthus retroflexus L.), AMARE: 0.1-1.5 leaf stage, 5. prickly sida (Sida spinosa L.), SIDSP: 0.1-0.6 leaf stage, 6. velvetleaf (Abutilon theophrasti), ABUTH: 0.1-0.6 leaf stage, 7. common cocklebur (Xanthium strumarium L.), XANST: 0.1 leaf stage, 8. rice (Oryza sativa L.), ORYSA; 1.0-2 leaf stage, 9. wheat (Triticum aestivum L.), TRZAX: 2.3-3.5 leaf stage, 10. corn (Zea mays L.), ZEAMXN 2.1-2.6 leaf stage, 11. soybean (Glycine max Merr.), GLXMA: primary leaf stage}, a wettable powder or emulsifiable concentrate having the compound of the present invention formulated in accordance with a usual formulation method, was weighed so that the active ingredient would be a predetermined amount, and diluted with water in an amount of 500 L/ha. To the diluted solution, 0.1% (v/v) of an agricultural spreader was added. The herbicide adjusted was applied by a small size sprayer for foliage treatment. On the 20th to 23rd day after the application of the herbicide, the growth of the respective plants was visually observed, and the herbicidal effects were evaluated by growth controlling degrees (%) ranging from 0 (equivalent to the untreated control) to 100 (complete kill), whereby the results shown in Table 5, were obtained. Compound Nos. in Table 5 correspond to Compound Nos. in Table 1 and 2 given hereinbefore.

[2] = test system: redroot pigweed (Amaranthus retroflexus L.), AMARE; test: Test Example 2 post-emergence (foliage treatment) herbicidal activity, AMARE; conditions: 63 g a.i./ha
Excerpt: as §1

[3] = test system: rice (Oryza sativa L.), ORYSA; test: Test Example 2 post-emergence (foliage treatment) herbicidal activity, ORYSA; conditions: 63 g a.i./ha
Excerpt: as §1

[4] = test system: wheat (Triticum aestivum L.): TRZAX; test: Test Example 1 pre-emergence herbicidal activity, TRZAX; conditions: visually observed 20th to 23rd day after application
Excerpt: (§2) Upland field soil was put into a 1/170,000 ha pot, and seeds of various plants {1. barnyardgrass (Echinochloa crus-galli L.): ECHCG, 2. crabgrass (Digitaria sanguinalis L.): DIGSA, 3. green foxtail (Setaria viridis L.): SETVI, 4. redroot pigweed (Amaranthus retroflexus L.): AMARE, 5. prickly sida (Sida spinosa L.): SEDSP, 6. velvetleaf (Abutilon theophrasti): ABUTH, 7. common cocklebur (Xanthium strumarium L.): XANST, 8. rice (Oryza sativa L.): ORYSA, 9. wheat (Triticum aestivum L.): TRZAX, 10. corn (Zea mays L.): ZEAMX, 11. soybean (Glycine max Merr.): GLXMA} were sown. Then, one day after the sowing, a wettable powder or emulsifiable concentrate having the compound of the present invention formulated in accordance with a usual formulation method, was weighed so that the active ingredient would be a predetermined amount and diluted with water in an amount of 500 L/ha. The herbicide adjusted was applied by a small size sprayer for preemergence treatment. On the 20th to 23rd day after the application of the herbicide, the growth of the respective plants was visually observed, and the herbicidal effects were evaluated by growth controlling degrees (%) ranging from 0 (equivalent to the untreated control) to 100 (complete kill), whereby the results shown in Table 4, were obtained. Compound Nos. in Table 4 correspond to Compound Nos. in Table 1 and 2 given hereinbefore.

[5] = test system: velvetleaf (Abutilon theophrasti): ABUTH; test: Test Example 1 pre-emergence herbicidal activity, ABUTH; conditions: visually observed 20th to 23rd day after application
Excerpt: as §2

[6] = test system: redroot pigweed (Amaranthus retroflexus L.): AMARE; test: Test Example 1 pre-emergence herbicidal activity, AMARE; conditions: Rate 63 g a.i./ha, visually observed 20th to 23rd day after application
Excerpt: as §2

[7] = test system: green foxtail (Setaria viridis L.): SETVI; test: Test Example 1 pre-emergence herbicidal activity, SETVI; conditions: visually observed 20th to 23rd day after application
Excerpt: as §2

[8] = test system: crabgrass (Digitaria sanguinalis L.), DIGSA; test: Test Example 2 post-emergence (foliage treatment) herbicidal activity, DIGSA; conditions: 63 g a.i./ha
Excerpt: as §1

[9] = test system: rice (Oryza sativa L.): ORYSA; test: Test Example 1 pre-emergence herbicidal activity, ORYSA; conditions: visually observed 20th to 23rd day after application
Excerpt: as §2

[10] = test system: prickly sida (Sida spinosa L.): SEDSP; test: Test Example 1 pre-emergence herbicidal activity, SIDSP; conditions: visually observed 20th to 23rd day after application
Excerpt: as §2

[11] = test system: green foxtail (Setaria viridis L.), SETVI; test: Test Example 2 post-emergence (foliage treatment) herbicidal activity, SETVI; conditions: 63 g a.i./ha
Excerpt: as §1

[12] = test system: wheat (Triticum aestivum L.), TRZAX; test: Test Example 2 post-emergence (foliage treatment) herbicidal activity, TRZAX; conditions: 63 g a.i./ha
Excerpt: as §1

[13] = test system: corn (Zea mays L.): ZEAMX; test: Test Example 1 pre-emergence herbicidal activity, ZEAMX; conditions: visually observed 20th to 23rd day after application
Excerpt: as §2

[14] = test system: barnyardgrass (Echinochloa crus-galli L.): ECHCG; test: Test Example 1 pre-emergence herbicidal activity, ECHCG; conditions: visually observed 20th to 23rd day after application
Excerpt: as §2

[15] = test system: soybean (Glycine max Merr.), GLXMA; test: Test Example 2 post-emergence (foliage treatment) herbicidal activity, GLXMA; conditions: 63 g a.i./ha
Excerpt: as §1

[16] = test system: crabgrass (Digitaria sanguinalis L.): DIGSA; test: Test Example 1 pre-emergence herbicidal activity, DIGSA; conditions: visually observed 20th to 23rd day after application
Excerpt: as §2

[17] = test system: corn (Zea mays L.), ZEAMX; test: Test Example 2 post-emergence (foliage treatment) herbicidal activity, ZEAMX; conditions: 63 g a.i./ha
Excerpt: as §1

[18] = test system: velvetleaf (Abutilon theophrasti), ABUTH; test: Test Example 2 post-emergence (foliage treatment) herbicidal activity, ABUTH; conditions: 63 g a.i./ha
Excerpt: as §1

[19] = test system: soybean (Glycine max Merr.): GLXMA; test: Test Example 1 pre-emergence herbicidal activity, GLXMA; conditions: visually observed 20th to 23rd day after application
Excerpt: as §2

[20] = test system: prickly sida (Sida spinosa L.), SIDSP; test: Test Example 2 post-emergence (foliage treatment) herbicidal activity, SIDSP; conditions: 63 g a.i./ha
Excerpt: as §1

Compound	growth controlling degree, ECHCO [1] [%]	growth controlling degree, AMARE [2] [%]	growth controlling degree, ORYSA [3] [%]	Pre-emergence Herbicidal Activity TRZAX (growth controlling degree) ([4]; Rate 63 g a.i./ha) [%]	Pre-emergence Herbicidal Activity ABUTH (growth controlling degree) ([5]; Rate 63 g a.i./ha) [%]	Pre-emergence Herbicidal Activity AMARE (growth controlling degree) [6] [%]	Pre-emergence Herbicidal Activity SETVI (growth controlling degree) ([7]; Rate 63 g a.i./ha) [%]	growth controlling degree, DIGSP [8] [%]	Pre-emergence Herbicidal Activity ORYSA (growth controlling degree) ([9]; Rate 63 g a.i./ha) [%]	Pre-emergence Herbicidal Activity SIDSP (growth controlling degree) ([10]; Rate 63 g a.i./ha) [%]	growth controlling degree, SETVI [11] [%]	growth controlling degree, TRZAX [12] [%]	Pre-emergence Herbicidal Activity ZEAMX (growth controlling degree) ([13]; Rate 63 g a.i./ha) [%]	Pre-emergence Herbicidal Activity ECHCG (growth controlling degree) ([14]; Rate 63 g a.i./ha) [%]	growth controlling degree, GLXMA [15] [%]	Pre-emergence Herbicidal Activity DIGSP (growth controlling degree) ([16]; Rate 63 g a.i./ha) [%]	growth controlling degree, ZEAMX [17] [%]	growth controlling degree, ABUTH [18] [%]	Pre-emergence Herbicidal Activity GLXMA (growth controlling degree) ([19]; Rate 63 g a.i./ha) [%]	growth controlling degree, SIDSP [20] [%]	other results
COc1c(Cl)cc(F)c(-c2nn(C)c(OC(F)F)c2Cl)c1NC(=O)c1cccc(C(F)(F)F)c1 [Compound 1-262]	60	100	30	0	20	100	30	40	10	30	80	30	0	0	50	30	40	100	0	–	–
CCOC(=O)C(C)Nc1c(OC)c(Cl)cc(F)c1-c1nn(C)c(OC(F)F)c1Cl (centres unmarked) [Compound 1-76]	100	100	80	0	40	100	60	70	10	60	80	40	0	60	70	100	90	100	0	–	–
COc1c(Cl)cc(F)c(-c2nn(C)c(OC(F)F)c2Cl)c1NC(=O)C1CC1 [Compound 1-264]	80	100	80	20	80	100	60	100	50	100	100	40	0	100	70	100	50	100	0	–	–
COCCC(=O)Nc1c(OC)c(Cl)cc(F)c1-c1nn(C)c(OC(F)F)c1Cl [Compound 1-40]	100	–	100	60	100	100	100	80	80	100	100	50	60	100	95	100	70	100	30	100	–
COc1c(Cl)cc(F)c(-c2nn(C)c(OC(F)F)c2Cl)c1N(C=O)CCOc1ccccc1 [Compound 1-43]	40	100	30	–	–	–	–	20	–	–	70	10	–	–	40	–	10	100	–	–	Pre-emergence Herbicidal Activity TRZAX (growth controlling degree) ([4]; Rate 125 g a.i./ha): 0%; Pre-emergence Herbicidal Activity ABUTH (growth controlling degree) ([5]; Rate 125 g a.i./ha): 0%; Pre-emergence Herbicidal Activity SETVI (growth controlling degree) ([7]; Rate 125 g a.i./ha): 0%; Pre-emergence Herbicidal Activity ORYSA (growth controlling degree) ([9]; Rate 125 g a.i./ha): 10%; Pre-emergence Herbicidal Activity SIDSP (growth controlling degree) ([10]; Rate 125 g a.i./ha): 0%; Pre-emergence Herbicidal Activity ZEAMX (growth controlling degree) ([13]; Rate 125 g a.i./ha): 0%; Pre-emergence Herbicidal Activity ECHCG (growth controlling degree) ([14]; Rate 125 g a.i./ha): 0%; Pre-emergence Herbicidal Activity DIGSP (growth controlling degree) ([16]; Rate 125 g a.i./ha): 10%; Pre-emergence Herbicidal Activity GLXMA (growth controlling degree) ([19]; Rate 125 g a.i./ha): 0%
COc1c(Cl)cc(F)c(-c2nn(C)c(OC(F)F)c2Cl)c1NC(=O)OCC1CCCCC1 [Compound 1-73]	100	–	50	0	10	100	60	10	10	20	70	50	0	30	50	20	10	100	0	100	–
